Results on 3 compounds are retold here after US6251853A, “PTX sensitive G proteins, the production and use thereof” (priority 1996, dated 2001).

One test deals with PTX-sensitive G proteins. In words: mastoparan 7-stimulated [35S]GTPγS binding to isolated cell membranes from normotensives and hypertensives. Type of test: biochemical, human. How it is done: (§1) A detailed characterization was carried out of the activation of G proteins from cells of normotensive subjects and hypertensive patients. For this purpose, the stimulated incorporation of radiolabeled [^35 S] GTPγS was quantified by the method described by Wieland et al. (Wieland, T., Liedel, K., Xaldenberg-Stasch, S., Meyer zu Heringdorf, D., Schmidt, M., and Jakobs, K. E. Analysis of receptor-G protein interactions in permeabilized cells. Naunyn-Schmiedeberg's Arch.Pharmacol. 351:329-336,1995). G Proteins were activated initially by stimulating cells which had been permeabilized with digitonin using the peptide mastoparan 7. This peptide simulates the configuration of an activated G protein-coupled receptor so that it can be used to induce direct G protein activation independent of receptors (Ross, E. M. and Higashijima, T. Regulation of G protein activation by mastoparan and other cationic peptides. Methods Enzymol. 237:27-38, 1994). The binding of GTPγS induced by MAS-7 is completely PTX-sensitive so that it can be used to quantify the activation of heterotrimeric G proteins of the Gi type. […] MAS-7 induces strong [^35 S] GTPγS binding on HT cells with an EC50 of about 5 μm (FIG. 2). Maximum binding is reached at about 25 to 50 μm MAS-7. In contrast to this, the concentration required for the same [^35 S] GTPγS binding to NT cells are [sic] 10 times higher (FIG. 2).
GTPγS to isolated cell membranes from normotensives and hypertensives. It is evident that the maximum stimulated binding of [^35 S] GTPγS to membranes from hypertensives occurs at lower concentrations of GDP (about 0.2 μmol/l), where a concentration of 1 μmol/l GDP is required for the same effect in normotensives.
In a similar way, the maximum binding, stimulated by mastoparan 7, of [^35 S] GTPγS to membrane preparations from hypertensive cells a low concentration of free Mg^2+ (about 0.01 mmol/l), while a free Mg^2+ concentration of 0.1 mmol/l is necessary for the same maximum binding of [^35 S] GTPγS to membranes from normotensive cells (FIG. 5).
For orientation: GTPγS is a poorly hydrolysed GTP analogue; its binding reports G protein activation.

The subject of test [1] is PTX-sensitive G proteins (heterotrimeric G proteins of the Gi type). In words: mastoparan 7-stimulated [35S]GTPγS binding to digitonin-permeabilized cells from normotensives and hypertensives. Type of test: cell-based, human. The protocol: as §1
GTPγS to cell lines from normotensives (NT) and hypertensives (HT).
The binding of [^35 S] GTPγS to hypertensive cells is distinctly speeded up (rate constants 0.005 s^-1 in the normotensive versus 0.01 s^-1 in the hypertensive state).

Turning to `Nc1nc2c(ncn2[C@@H]2O[C@H](COP(=O)(O)OP(=O)(O)O)[C@@H](O)[C@H]2O)c(=O)[nH]1` [GDP], in the test on PTX-sensitive G proteins (membranes from hypertensives), the “GDP concentration at which maximum mastoparan 7-stimulated [35S]GTPγS binding occurs” value is “about 0.2 μmol/l”. The “GDP concentration required for maximum mastoparan 7-stimulated [35S]GTPγS binding” value in the test with PTX-sensitive G proteins (membranes from normotensives) came out at 1 µmol/L.
With `[Mg+2]` [Mg^2+], the “free Mg2+ concentration for maximum mastoparan 7-stimulated [35S]GTPγS binding” value was “about 0.01 mmol/l” in the test with PTX-sensitive G proteins (membrane preparations from hypertensive cells) and 0.1 mmol/L with PTX-sensitive G proteins (membranes from normotensive cells).
The term EC50 denotes the concentration at which the effect is half-maximal. Regarding mastoparan 7 [MAS-7], the half-maximal effective concentration (EC50) in test [1] (HT (hypertensive) cells, digitonin-permeabilized, read-out: EC50 of induced [35S]GTPγS binding) is approximately 5 µM. In test [1] (NT (normotensive) versus HT cells), the “concentration required for the same [35S]GTPγS binding to NT cells, relative to HT cells” value amounted to 10 times higher. Further, the “rate constant of stimulated [35S]GTPγS binding” value in test [1] (hypertensive state) was 0.01 s⁻¹; in test [1] (normotensive state), 0.005 s⁻¹.
